{"source": "patent US12370235B2", "about": "“Synthetic, non-natural antimicrobial peptides inspired by Staphylococcus auricularis delta toxin” (University of Saskatchewan, priority 2021, dated 2025)", "key": {"[1]": {"tested_on": "S. aureus / MRSA (ATCC MP-2 panel)", "type": "cell-based, Staphylococcus aureus", "conditions": "in words", "in_short": "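MIC by broth microdilution in cation-adjusted Mueller Hinton broth: cultures diluted to OD 6×10^−4 and exposed to 2-fold peptide dilution series, standing overnight at 37° C. MIC = lowest peptide concentration with no visible growth. Panel: one methicillin-sensitive S. aureus plus 7 MRSA strains of distinct SCCmec genotypes.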"}, "[2]": {"tested_on": "MRSA ATCC 33592", "experiment": "DiSC3(5) membrane polarization assay", "type": "cell-based, Staphylococcus aureus", "conditions": "1.56 to 25 μg/mL", "experimental": "(§1) Membrane disruption and depolarization are commonly reported mechanisms of AMP action. Two indirect assays that rely on fluorescent dyes were employed to assess the interaction of STIP3-29 and D-STIP3-29 with bacterial membranes. First, changes to SYTOX fluorescence was measured when MRSA ATCC 33592 was treated with increasing peptide concentrations ranging from one fourth to four-fold the MIC. […] Next, DiSC3(5), a cationic dye that binds to polarized membranes was used to report on possible depolarization related to AMP treatment. […] Thus, without wishing to be bound by theory, a more conservative explanation of the results is that the cationic peptides increase membrane permeability to SYTOX and that the like-charge of the AMPs to the reporter of polarization may confound the interpretation of the indirect assay. For example, the AMPs may simply displace the self-quenching DiSC3(5) molecules from the membrane surface without causing depolarization."}, "[3]": {"tested_on": "HeLa cells", "type": "cell-based", "conditions": "24 h, alamarBlue", "experimental": "Peptide cytotoxicity. In vitro cytotoxicity was measured using the 3D EpiDerm skin tissues and HeLa Cells using a fluorescent reporter of cell viability, alamarBlue (ThermoFisher Scientific). 3D EpiDerm skin tissues (MatTek EPI-200-AFAB) were transferred to a 12 well plate containing 600 μL of AFAB-assay medium supplemented with 10% v/v alamarBlue. […] HeLa cells were seeded in a 96-well plate (2×10^4 cells/per well) and incubated overnight at 37° C. and 5% CO2 in a humidified incubator to prepare wells at ˜50% confluency of adherent cells. After the incubation, spent DMEM was removed and cells were washed with PBS. alamarBlue-containing medium was prepared by mixing Phenol Red-free DMEM with alamarBlue solution at a 9:1 ratio and a 180 μl volume was added to each well. Cells were treated with peptides varying from 3.25 to 200 μg/mL and then incubated for 24 h. The fluorescence intensities of treated cultures were normalized to values measured for an untreated control group. After the 24 h incubation period, alamarBlue fluorescence was measured at 590 nm upon excitation at 560 nm using Varioskan Lux plate reader (Thermo Scientific) plate reader."}, "[4]": {"tested_on": "C. albicans MYA-2876", "experiment": "MIC, YPD broth", "type": "cell-based, Candida albicans", "conditions": "Table 8", "in_short": "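Yeast cells were diluted in YPD broth, and 180 μl aliquots were mixed with 20 μl of peptide from 2-fold serial dilutions in flat-bottom 96-well microtitre plates. Wells receiving 20 μl sterile water served as controls. After standing incubation overnight at 37° C, the MIC was taken as the lowest peptide concentration with no visible microbial growth.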"}, "[5]": {"tested_on": "C. albicans Y537", "experiment": "MIC, YPD broth", "type": "cell-based, Candida albicans", "conditions": "Table 8"}, "[6]": {"tested_on": "MRSA ATCC 33592", "experiment": "SYTOX Green membrane integrity assay", "type": "cell-based, Staphylococcus aureus", "conditions": "one fourth to four-fold the MIC", "experimental": "as §1"}, "[7]": {"tested_on": "S. aureus ATCC BAA-44 (MRSA SCCmec type I)", "experiment": "MIC, broth dilution", "type": "cell-based, Staphylococcus aureus", "conditions": "Table 5; STIP3 variants, highest concentration 100 μg/mL", "in_short": "(§2)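 Peptides of 95% purity tested as 2-fold dilution series against bacteria diluted to OD 6×10^−4 in cation-adjusted Mueller Hinton broth. Standing cultures incubated overnight at 37° C; MIC is the lowest concentration with no visible growth.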"}, "[8]": {"tested_on": "S. aureus ATCC 33592 (MRSA SCCmec type III)", "experiment": "MIC, broth dilution", "type": "cell-based, Staphylococcus aureus", "conditions": "Table 5; STIP3 variants, highest concentration 100 μg/mL", "in_short": "as §2"}, "[9]": {"tested_on": "S. aureus ATCC BAA-2094 (MRSA SCCmec type V)", "experiment": "MIC, broth dilution", "type": "cell-based, Staphylococcus aureus", "conditions": "Table 5; STIP3 variants, highest concentration 100 μg/mL", "in_short": "as §2"}, "[10]": {"tested_on": "S. aureus ATCC BAA-2313 (MRSA SCCmec type XI)", "experiment": "MIC, broth dilution", "type": "cell-based, Staphylococcus aureus", "conditions": "Table 5; STIP3 variants, highest concentration 100 μg/mL", "in_short": "as §2"}, "[11]": {"tested_on": "S. aureus ATCC 29213", "experiment": "MIC, broth dilution", "type": "cell-based, Staphylococcus aureus", "conditions": "Table 5; STIP3 variants, highest concentration 100 μg/mL", "in_short": "as §2"}, "[12]": {"tested_on": "S. aureus ATCC BAA-42 (MRSA SCCmec type VI)", "experiment": "MIC, broth dilution", "type": "cell-based, Staphylococcus aureus", "conditions": "Table 5; STIP3 variants, highest concentration 100 μg/mL", "in_short": "as §2"}, "[13]": {"tested_on": "S. aureus ATCC BAA-1683 (MRSA SCCmec type IV)", "experiment": "MIC, broth dilution", "type": "cell-based, Staphylococcus aureus", "conditions": "Table 5; STIP3 variants, highest concentration 100 μg/mL", "in_short": "as §2"}, "[14]": {"tested_on": "S. aureus ATCC BAA-41 (MRSA SCCmec type II)", "experiment": "MIC, broth dilution", "type": "cell-based, Staphylococcus aureus", "conditions": "Table 5; STIP3 variants, highest concentration 100 μg/mL", "in_short": "as §2"}, "[15]": {"experiment": "Circular dichroism spectroscopy", "type": "physicochemical", "conditions": "CD, 50% (v/v) TFE", "in_short": "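Secondary structure of peptides dissolved in water at 0.3–0.5 mg/mL was assessed by CD. Spectra were recorded from 180 to 260 nm at room temperature in a 0.1 cm quartz cuvette; water and 50% (v/v) TFE conditions were compared.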"}}, "note": "Square brackets hold non-standard residues; d marks the D form. Peptide text beside a SMILES is read from it.", "data": [{"smiles": "CC[C@@H](C)[C@@H](NC(=O)[C@@H](Cc1c[nH]c2ccccc12)NC(=O)[C@@H](CCCCN)NC(=O)[C@H](NC(=O)[C@@H](CC(C)C)NC(=O)CNC(=O)CNC(=O)[C@H](NC(=O)[C@H](N)[C@H](C)O)C(C)C)C(C)C)C(=O)N[C@H](CC(C)C)C(=O)N[C@H](CCCCN)C(=O)N[C@@H](C(=O)N[C@@H](C(=O)N[C@H](CCCCN)C(=O)N[C@H](CCCCN)C(=O)N[C@H](Cc1ccccc1)C(=O)N[C@H](C)C(N)=O)C(C)C)[C@H](C)O", "note": "[D-STIP3-29, TVGGLVKWILKTVKKFA-NH2] (H-[dT][dV]GG[dL][dV][dK][dW][dI][dL][dK][dT][dV][dK][dK][dF][dA]-NH2; N-terminus assumed)", "values": [{"measurement": "activity relative to the L-enantiomer", "setting": "[1]", "result": "just as active as the L-enantiomer"}, {"measurement": "DiSC3(5) fluorescence change", "setting": "[2]", "result": "dose-dependent increase in fluorescence"}, {"measurement": "IC50, HeLa cell survival", "setting": "[3]", "result": "39 ± 3", "unit": "µg/mL"}, {"measurement": "MIC C. albicans MYA-2876", "setting": "[4]", "result": 50, "unit": "µg/mL"}, {"measurement": "MIC C. albicans Y537", "setting": "[5]", "result": 50, "unit": "µg/mL"}, {"measurement": "SYTOX fluorescence change", "setting": "[6]", "result": "rapid and concentration dependent increase in SYTOX fluorescence"}, {"measurement": "MIC S. aureus ATCC BAA 44 (I)", "setting": "[7]", "result": 12.5, "unit": "µg/mL"}, {"measurement": "MIC S. aureus ATCC 33592 (III)", "setting": "[8]", "result": 6.25, "unit": "µg/mL"}, {"measurement": "MIC S. aureus ATCC BAA 2094 (V)", "setting": "[9]", "result": 6.25, "unit": "µg/mL"}, {"measurement": "MIC S. aureus ATCC BAA 2313 (XI)", "setting": "[10]", "result": 6.25, "unit": "µg/mL"}, {"measurement": "MIC S. aureus ATCC 29213", "setting": "[11]", "result": 6.25, "unit": "µg/mL"}, {"measurement": "MIC S. aureus ATCC BAA 42 (VI)", "setting": "[12]", "result": 6.25, "unit": "µg/mL"}, {"measurement": "MIC S. aureus ATCC BAA 1683 (IV)", "setting": "[13]", "result": 6.25, "unit": "µg/mL"}, {"measurement": "MIC S. aureus ATCC BAA 41 (II)", "setting": "[14]", "result": 6.25, "unit": "µg/mL"}, {"measurement": "α helicity (%)", "setting": "[15]", "result": 47, "unit": "%"}]}]}
